Where only a bound is given, the exact number is not on record here.

What all share (type): cell-based
The target in one assay is T1, progesterone receptor (Homo sapiens, UniProt P06401).
T1 construct: expressed in transfected cells; host or cells: CV-1 cells transduced with PRb-BacMam and MMTV-BacMam
T1 sequence (P06401 1-933): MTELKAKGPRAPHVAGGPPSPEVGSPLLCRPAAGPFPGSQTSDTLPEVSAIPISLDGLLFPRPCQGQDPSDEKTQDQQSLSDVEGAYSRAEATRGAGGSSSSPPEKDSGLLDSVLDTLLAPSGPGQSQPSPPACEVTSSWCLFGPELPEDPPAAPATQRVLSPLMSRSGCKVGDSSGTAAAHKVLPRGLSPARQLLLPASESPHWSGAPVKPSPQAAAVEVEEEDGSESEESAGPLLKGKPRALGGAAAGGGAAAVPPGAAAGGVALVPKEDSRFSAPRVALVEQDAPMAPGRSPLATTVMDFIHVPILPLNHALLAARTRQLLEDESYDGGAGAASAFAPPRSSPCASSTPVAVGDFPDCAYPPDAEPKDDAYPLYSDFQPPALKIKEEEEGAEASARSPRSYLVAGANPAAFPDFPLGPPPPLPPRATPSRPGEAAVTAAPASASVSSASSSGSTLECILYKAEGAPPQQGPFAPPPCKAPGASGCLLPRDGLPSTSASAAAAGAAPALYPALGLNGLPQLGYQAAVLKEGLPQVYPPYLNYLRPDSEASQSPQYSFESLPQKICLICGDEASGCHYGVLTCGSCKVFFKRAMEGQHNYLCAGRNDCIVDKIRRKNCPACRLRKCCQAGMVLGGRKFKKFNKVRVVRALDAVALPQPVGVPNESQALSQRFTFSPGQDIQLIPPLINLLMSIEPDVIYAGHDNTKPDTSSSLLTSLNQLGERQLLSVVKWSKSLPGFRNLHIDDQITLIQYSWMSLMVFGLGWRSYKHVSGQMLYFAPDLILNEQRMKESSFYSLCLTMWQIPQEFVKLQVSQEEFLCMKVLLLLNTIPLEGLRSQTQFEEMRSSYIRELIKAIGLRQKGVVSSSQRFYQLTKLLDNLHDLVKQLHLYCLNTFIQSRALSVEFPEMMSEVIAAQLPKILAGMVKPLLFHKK
Briefly: Assay for progesterone receptor activity (CV-1 cells, PRb-BacMam/MMTV-BacMam). The note with it: CV-1 cells transduced with PRb-BacMam and MMTV-BacMam; read-out: pEC50 progesterone receptor activity (converted). In short, it runs like this:
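CV-1 cells co-transduced with PRb-BacMam and MMTV-BacMam (10% each), seeded onto compounds in DMEM with 10% serum. After 24 h, luminescence was read with Steadylite. pEC50 values were estimated from dose-response curves.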

The next assay concerns NFκB. Briefly: NFκB agonist assay in A549 SPAP cells.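 For average maximum asymptote in the NFkB assay: maximum inhibition of the TNFα-induced NFκB-driven signal.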 The note with it: Homo sapiens; for Emax: A549, A549 SPAP cells, >85% = full agonist, ≧20% = partial or full agonist, read-out: average maximum asymptote in the NFkB assay; for IC50: A549 SPAP cells, TNFα 3.2 ng/ml, read-out: pIC50 for the NFkB assay (converted). Summed up:
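A549 cells stably carrying an ELAM/NFκB-driven SPAP reporter were pre-incubated 1 h at 37° C with compound, then stimulated with TNFα (3.2 ng/ml final) for 15 h. SPAP activity read colorimetrically with pNPP at 405 nm after ~1 h; pIC50 estimated from dose-response curves.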

For the next assay, the system named is MMTV promoter. Briefly: MMTV agonist assay in A549 MMTV cells. The note with it: Homo sapiens, A549, 6 h, >85% = full agonist, >20% and <85% = partial or efficacy selective agonist, read-out: average maximum asymptote in the MMTV agonist assay. In short, it runs like this:
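A549 cells stably carrying an MMTV promoter-driven renilla luciferase reporter were exposed to compound for 6 h at 37 °C in DMEM with 10% FCS and 25 mM HEPES. Luminescence read after renilla substrate addition; pEC50 and maximum asymptote estimated from dose-response curves.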

Consider `Nc1c(C(=O)NCC(O)(CNC(=O)c2c(Cl)cccc2Cl)C(F)(F)F)cnn1-c1ccc(F)cc1` (single isomer, unassigned) [Example 3 Enantiomer 1, 5-Amino-N-[2-({[(2,6-dichlorophenyl)carbonyl]amino}methyl)-3,3,3-trifluoro-2-hydroxypropyl]-1-(4-fluorophenyl)-1H-pyrazole-4-carboxamide], for which the EC50 at progesterone receptor was over 1 µM. Moreover, the Emax with NFκB is at least 20%; in the assay with MMTV promoter, 20 to 85%. The IC50 in the assay on NFκB is under 1 µM.
Taken in the same sequence, the figures for `CCN(CC(O)(CNC(=O)c1cnn(-c2ccc(F)cc2)c1N)C(F)(F)F)C(=O)c1ccccc1S(C)(=O)=O` (single isomer, unassigned) [Example 10 Enantiomer 1, 5-Amino-N-{2-[(ethyl{[2-(methylsulfonyl)phenyl]carbonyl}amino)methyl]-3,3,3-trifluoro-2-hydroxypropyl}-1-(4-fluorophenyl)-1H-pyrazole-4-carboxamide] were over 1 µM, over 85%, over 85% and under 1 µM.
On to `Nc1c(C(=O)NCC(O)(CNC(=O)c2c(Br)cccc2Br)C(F)(F)F)cnn1-c1ccc(F)cc1` (single isomer, unassigned) [Example 11 Enantiomer 1, 5-Amino-N-[2-({[(2,6-dibromophenyl)carbonyl]amino}methyl)-3,3,3-trifluoro-2-hydroxypropyl]-1-(4-fluorophenyl)-1H-pyrazole-4-carboxamide], for which, at progesterone receptor, the EC50 was over 1 µM. In the assay on NFκB, the Emax was at least 20% and the IC50 is under 1 µM. Further, the Emax with MMTV promoter lay in the range of 20 to 85%.
On to `Nc1c(C(=O)NCC(O)(CNC(=O)c2c(Cl)cccc2Br)C(F)(F)F)cnn1-c1ccc(F)cc1` (single isomer, unassigned) [Example 12 Enantiomer 1, 5-Amino-N-[2-({[(2-bromo-6-chlorophenyl)carbonyl]amino}methyl)-3,3,3-trifluoro-2-hydroxypropyl]-1-(4-fluorophenyl)-1H-pyrazole-4-carboxamide], for which the EC50 on progesterone receptor is over 1 µM. For the same molecule, in the assay on NFκB, the Emax is at least 20% and the IC50 is under 1 µM. The Emax in the assay on MMTV promoter lay within 20 to 85%.
With `Nc1c(C(=O)NCC(O)(CNC(=O)c2c(F)cccc2Br)C(F)(F)F)cnn1-c1ccc(F)cc1` (single isomer, unassigned) [Example 13 Enantiomer 1, 5-Amino-N-[2-({[(2-bromo-6-fluorophenyl)carbonyl]amino}methyl)-3,3,3-trifluoro-2-hydroxypropyl]-1-(4-fluorophenyl)-1H-pyrazole-4-carboxamide], on progesterone receptor, the EC50 is over 1 µM. For the same molecule, in the assay on NFκB, the Emax was at least 20% and the IC50 was under 1 µM. Further, the Emax in the assay with MMTV promoter is 20 to 85%.
On the same counts, the results for `Nc1c(C(=O)NCC(O)(CNC(=O)c2c(Cl)cccc2OC(F)F)C(F)(F)F)cnn1-c1ccc(F)cc1` (single isomer, unassigned) [Example 14 Enantiomer 1, 5-Amino-N-(2-{[({2-chloro-6-[(difluoromethyl)oxy]phenyl}carbonyl)amino]methyl}-3,3,3-trifluoro-2-hydroxypropyl)-1-(4-fluorophenyl)-1H-pyrazole-4-carboxamide] are over 1 µM, at least 20%, under 1 µM and 20 to 85%.
Taken in the same sequence, the figures for `Nc1c(C(=O)NCC(O)(CNC(=O)c2c(C(F)F)cccc2C(F)F)C(F)(F)F)cnn1-c1ccc(F)cc1` (single isomer, unassigned) [Example 43 Enantiomer 1, 5-Amino-N-{2-[({[2,6-bis(difluoromethyl)phenyl]carbonyl}amino)methyl]-3,3,3-trifluoro-2-hydroxypropyl}-1-(4-fluorophenyl)-1H-pyrazole-4-carboxamide] were over 1 µM, at least 20%, under 1 µM and 20 to 85%.
Taken in the same sequence, the figures for `Nc1c(C(=O)NCC(O)(CNC(=O)c2c(Cl)cccc2C(F)(F)F)C(F)(F)F)cnn1-c1ccc(F)cc1` (single isomer, unassigned) [Example 44 Enantiomer 1, 5-Amino-N-{2-[({[2-chloro-6-(trifluoromethyl)phenyl]carbonyl}amino)methyl]-3,3,3-trifluoro-2-hydroxypropyl}-1-(4-fluorophenyl)-1H-pyrazole-4-carboxamide] were over 1 µM, at least 20%, under 1 µM and 20 to 85%.
As to `Nc1c(C(=O)NCC(O)(CNC(=O)c2c(Br)cccc2C(F)(F)F)C(F)(F)F)cnn1-c1ccc(F)cc1` (single isomer, unassigned) [Example 45 Enantiomer 1, 5-Amino-N-{2-[({[2-bromo-6-(trifluoromethyl)phenyl]carbonyl}amino)methyl]-3,3,3-trifluoro-2-hydroxypropyl}-1-(4-fluorophenyl)-1H-pyrazole-4-carboxamide], the EC50 at progesterone receptor was over 1 µM. In the assay with NFκB, the Emax was at least 20% and the IC50 was under 1 µM. In addition, the Emax with MMTV promoter was 20 to 85%.
On the same counts, the results for `Nc1c(C(=O)NCC(O)(CNC(=O)c2c(F)cccc2OC(F)F)C(F)(F)F)cnn1-c1ccc(F)cc1` (single isomer, unassigned) [Example 48 Enantiomer 1, 5-Amino-N-(2-{[({2-[(difluoromethyl)oxy]-6-fluorophenyl}carbonyl)amino]methyl}-3,3,3-trifluoro-2-hydroxypropyl)-1-(4-fluorophenyl)-1H-pyrazole-4-carboxamide] are over 1 µM, at least 20%, under 1 µM and 20 to 85%.

The values are drawn from patent US8247377B2, “Non-steroidal glucocorticoid inhibitors and their use in treating inflammation, allergy and auto-immune conditions” (Glaxo Group Limited, priority 2006, dated 2012).
